Reference: patent publication US7314959B2, “Amino thiol compounds and compositions for use in conjunction with cancer therapy” (Wisconsin Alumni Research Foundation, priority 2003, dated 2008)
Entries after “also recorded” stand apart in the source; their conditions may differ.

Assays:
[1] = test system: cell cycle; settings: Jeitner and Renton 1996; Snyder and Grdina 2000; Kramer et al. 1997; cited from earlier work
[2] = test system: primary, human skin fibroblasts; test: Cell cycle block in human skin fibroblasts (flow cytometry); type: cell-based; settings: for cell cycle block (phase): log-phase human fibroblast cultures; for reversibility of cell cycle block: upon washout or removal of the drug
Method: (§1) Methods (Cell cycle and p21 western): The cell culture experiments were done using primary, human skin fibroblasts, one strain of which (BJ cells) was obtained from ATCC (American Type Culture Collection). […] For flow cytometry and p21 experiments, cells were plated at 0.5×10^6 cells/150 mm plate, and 24 hr later, drug molecules (4100 μM PrC-210, 600 μM cysteamine, 205 μM cysteamine analog, 0.4 μg/ml colcemid) were added to medium. […] (Cancer Research. 61(21):7754-62, 2001). As per the cited reference, cells were fixed, treated with RNAse, and stained with propidium iodide for flow cytometry, or cells were extracted, proteins electrophoresed, and probed with anti-p21 antibody (#SXM-30) for western blot analysis.

[3] = test system: cells in tissue culture; settings: Purdie 1979; cited from earlier work
[4] = test system: radiation-induced dermatitis on backs of rats; test: Radiation-induced dermatitis in rat skin model; type: in vivo; settings: for protective effect against radiation-induced dermatitis (FIG. 8D): topical in carrier vehicle before 5.5 min Cs137 irradiation
Method: To determine efficacy of chemoprotective polyamines in preventing radiation-induced dermatitis, adult rats were topically treated with the compounds before and after radiation treatment. Rats were exposed to medically relevant levels of radiation that could induce clinical radiation dermatitis. Sprague Dawley rats (Harlan Spraque Dawley) at 4-6 weeks-old were anesthetized with sodium pentobarbital at 40 mg/kg body weight (Sigma, St. Louis, Mo.) prior to radiation exposure. A defined area (1.5×2 cm) on the backs of rats was irradiated using a Mark I, Model 30, Cs 137 irradiator (J. L. Sheppard & Associates). Before topical drug treatment or irradiation, the backs of the rats were clipped using an Oster clipper at the closest setting. The rest of the body was protected from radiation exposure using a lead shield (2.5 cm thick). A dose response study was initially performed to reproduce relevant dermatitis that matched the Grade (I-IV) scale used to score the severity of radiation-induced dermatitis in humans. The severity of the dermatitis was scored 12-13 days post-irradiation at the peak of the dermal inflammation. […] Radiation dermatitis of Grade II-III was considered most clinically relevant, so a radiation dose of 8.7 Gy was typically used in the rats. The clipped back region on the rats was treated topically with aminothiol in delivery vehicle four times in the two hours immediately preceding irradiation (at −2 hr, −1 hr, −30 min, and −10 min; irradiation was at 0 min
The polyamines or amino thiols were prepared in a delivery vehicle, consisting of ethanol:propylene glycol:water, ranging from 0:95:5 to 50:30:20 depending upon the solubility characteristics of the topical molecule, and the degree of dermal penetration desired. A vehicle composed of an emulsion formed by sonication of ‘nonionic liposomes’ and isopropyl myristate was also used (Jayaraman, S. et al., J. Pharm. Sci. 85:1082-1084, 1996). In a commonly used protocol, 220 μl of topical drug/vehicle was applied to an area ˜2 cm×3 cm on the back in the 2 hr just prior to irradiation. Rats treated with only the delivery vehicle served as controls. Twelve to thirteen days post-radiation, the rats were evaluated for dermatitis within the irradiated area. In early studies, a modified scoring scale described by Masuda K. et al., Int. J. Radiation Oncol. Biol. Phys: 12, 1645 (1986) was used, and in later studies, including those described here, a simplified scoring system was used in which the percentage of the irradiated, rectangular field covered with scrab material was estimated between 0 and 100% to provide scores on a scale between 0 and 100.
This example relates to the use of a rat skin model to evaluate the efficacy of two amino thiol compounds in preventing radiation-induced dermatitis. To test whether topically-applied aminothiols could prevent the radiodermatitis caused by external beam radiotherapy, the rodent model described in Example 3 was slightly modified. Briefly, the radiodermatitis model involved: • i) shaving the backs of 6-7 week old rats or mice; • ii) applying four topical doses of aminothiol in a delivery vehicle composed of ethanol:propylene glycol (PG):water in the 2 hr prior to irradiation; • iii) irradiating a small, 3 cm^2 (1.5×2 cm) area on the animal's back (through a window in a lead plate) with 8.7 Gy of γ radiation from a Cs^137 source; and • iv) scoring the severity of the dermatitis 12-13 days later, at the peak of the inflammatory skin reaction. Radiodermatitis severity was scored by estimating the percentage of the irradiated field that was covered by scrab material.
Methods: Treatments were applied as described in Example 6.

[5] = test system: 23SK human skin cells; test: Protection of human skin cells against phosphoramide mustard; type: cell-based; settings: 4 mM preload 30 min, phosphoramide mustard 40 min
Method: An in vitro cell culture assay was developed to determine the ability of chemoprotective polyamines, chemoprotective amino thiols and other molecules to confer radioprotection or chemoprotection to human skin cells. Diploid, human foreskin fibroblasts (23SK cells) were maintained in DMEM supplemented with 20% fetal bovine serum and gentamycin. For toxicity experiments, cells were seeded at a density of 750 cells/100 μl of DMEM+20% FBS+gentamycin into each well of 96 well plates (Corning, Corning, N.Y.). The next day, solutions of protective drug molecules, typically at 4 mM concentration, were prepared in Dulbecco's phosphate-buffered saline (D-PBS); each stock was titrated back to pH 7.0-7.5, if necessary, using sterile HCl or NaOH. Media was aspirated from cell wells, wells were rinsed with D-PBS, and loading solutions were then added to wells. Cells were typically exposed to loading solutions for 30 min. Following this drug loading period, plates were either placed directly into a Shepherd Mark II Cs^137 irradiator for irradiation (38 min), or wells were aspirated and the solution immediately replaced with a solution of D-PBS containing 350 μM phosphoramide mustard (obtained from NCI Chemical Repository) for a 40 min incubation at room temperature. After either treatment, wells were aspirated, rinsed and then given 100 μl of DMEM+20% FBS+gentamycin. Plates were maintained in 5% CO2 within a humidified chamber within a humidified incubator for 4-5 days at 37° C. […] of MTT solution (Promega Corp., Madison, Wis.) was then added to each well, and color development occurred over the next 3 hr at 37° C. Absorbance at 490 nm was then determined using a plate reader, and cell growth in treated wells compared to cell growth in wells loaded with vehicle and not irradiated or exposed to phosphoramide mustard was plotted using GraphPad software.

[6] = test system: mouse skin; settings: cited from earlier work
[7] = test system: p21 in human fibroblasts; test: p21 western blot in human skin fibroblasts; type: cell-based; settings: IC70 concentration of PrC-210 (4100 μM); cysteamine 600 μM; 30 hour exposure
Method: as §1

[8] = test system: Phase I/Phase II/Phase III drug metabolizing/exporting gene products in neonate rat skin; test: Nucleic acid arrays of topically treated neonate rat skin; type: in vivo; settings: topical treatment of neonate rat skin for 3-6 days
Excerpt: Two examples of genes whose expression was induced following topical β-naphthaflavone treatment included, glutathione S-transferase (several separate isoforms that conjugate/detoxify drug electrophiles), and MRP (mdr-related protein, drug exporting membrane pump).

| SMILES | cell cycle arrest reported in literature [1] | cell cycle block (phase) [2] | reversibility of cell cycle block [2] | radioprotector activity when added to cells in tissue culture [3] | protective effect against radiation-induced dermatitis (FIG. 8D) [4] | protective effect on cell growth against phosphoramide mustard (FIG. 8B) [5] | effect of systemic drug on radiation-induced skin damage ([6]; systemic, mice, Lowy et al. 1972) | protective effect when applied topically to mouse skin ([6]; topical, Verhey et al. 1983) | effect of topical application on radiation-induced skin damage ([6]; topical, mice, Lowy et al. 1972) | effect on radiation dermatitis ([4]; 600-1200 mM applied to backs of rats two hours prior to radiation) | p21 expression [7] | number of Phase I/Phase II/Phase III drug metabolizing/exporting gene products activated [8] |
| --- | --- | --- | --- | --- | --- | --- | --- | --- | --- | --- | --- | --- |
| NCCCNCCS [WR-1065] | arresting cells in the G2 phase | cell cycle block in G2; also recorded: G2 cell cycle block that could not be reversed | not reversible | active as a radioprotector | lack of a protective effect | not significantly different than that seen in the vehicle control | – | – | – | – | – | – |
| NCCCNCCSP(=O)(O)O [amifostine] | arresting cells in the G2 phase | G2 cell cycle block that could not be reversed | – | – | lack of a protective effect | not significantly different than that seen in the vehicle control | effective in reducing radiation-induced skin damage | no protective effect | showed no protective effect | – | – | – |
| NCCS [cysteamine] | arrest in G2/M | cell cycle block in G2; also recorded: G2 cell cycle block that could not be reversed | not reversible | active as a radioprotector | – | conferred a protective effect | – | – | – | eliminate radiation dermatitis | does not induce such expression | – |
| O=c1cc(-c2ccccc2)oc2ccc3ccccc3c12 [β-naphthaflavone] | – | – | – | – | – | – | – | – | – | – | – | at least 40 |
